Measurements published in patent publication US8663653B2, “Efficient cell culture system for hepatitis C virus genotype 2B” (priority 2008, dated 2014).
Entries after “also recorded” stand apart in the source; their conditions may differ.

System: JFH1-based recombinants of genotypes 1a, 1b, 2a, 2b, and 6a
Assay type: cell-based, hepatitis C virus

SMILES: NC12CC3CC(CC(C3)C1)C2 [amantadine]
- effect on number of infected cells and supernatant HCV RNA titers: no apparent effect; also recorded: did not decrease the number of infected cells or supernatant HCV RNA titers

SMILES: NC(=O)c1ncn([C@@H]2O[C@H](CO)[C@@H](O)[C@H]2O)n1 [ribavirin]
- effect on number of infected cells and supernatant HCV RNA titers: no apparent effect; also recorded: did not decrease the number of infected cells or supernatant HCV RNA titers
